Measured values published in US20250215030A1, “STAT MODULATORS AND USES THEREOF” (Recludix Pharma, Inc., priority 2022, published 2025).
pIC50: −log10 of the molar value. Like-named read-outs stand apart in the source and are kept apart here.

Target: T1, pSTAT3 (pY705-STAT3) (Homo sapiens, UniProt P40763)
T1 construct: host or cells: cryopreserved PBMC
Assay: MSD-pSTAT-PBMC Assay (pSTAT3, IL-6 stimulated)
Format: cell-based
Outline: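 Phospho-STAT levels captured on anti-STAT3 or anti-STAT6 plates and detected with anti-pY705 or anti-pY641 antibodies (MSD read-out). Cryopreserved human PBMCs received compound for 3 h before a 10 min pulse of IL-6 (10 ng/mL, STAT3) or IL-4 (1 ng/mL, STAT6). IC50 fitted after unstimulated-background subtraction and DMSO normalization.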

[1] = PBMC, compound 3 hrs, then 10 ng/mL IL-6 for 10 min, MSD pY705-STAT3, read-out: pSTAT3

T1 sequence (P40763 whole entry): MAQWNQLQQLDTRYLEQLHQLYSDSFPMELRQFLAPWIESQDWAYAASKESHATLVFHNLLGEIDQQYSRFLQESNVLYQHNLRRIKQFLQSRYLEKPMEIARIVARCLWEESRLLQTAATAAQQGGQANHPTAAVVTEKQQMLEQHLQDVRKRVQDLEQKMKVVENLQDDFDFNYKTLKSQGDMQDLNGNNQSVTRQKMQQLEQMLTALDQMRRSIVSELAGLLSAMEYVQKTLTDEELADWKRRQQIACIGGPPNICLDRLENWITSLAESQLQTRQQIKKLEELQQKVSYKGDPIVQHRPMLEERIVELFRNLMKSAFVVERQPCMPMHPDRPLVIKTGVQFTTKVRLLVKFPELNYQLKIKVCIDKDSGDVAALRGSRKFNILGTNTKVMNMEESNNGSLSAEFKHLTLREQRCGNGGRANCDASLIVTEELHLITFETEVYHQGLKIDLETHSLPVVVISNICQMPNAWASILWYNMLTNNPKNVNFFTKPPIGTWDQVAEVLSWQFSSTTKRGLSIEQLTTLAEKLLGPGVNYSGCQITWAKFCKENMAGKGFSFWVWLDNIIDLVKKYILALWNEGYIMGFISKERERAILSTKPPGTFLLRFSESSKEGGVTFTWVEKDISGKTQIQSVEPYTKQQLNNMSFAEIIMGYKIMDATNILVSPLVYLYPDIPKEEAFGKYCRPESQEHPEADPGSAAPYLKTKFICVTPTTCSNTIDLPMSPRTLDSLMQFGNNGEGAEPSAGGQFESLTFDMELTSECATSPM

Structure (SMILES)	pIC50 [1]	pIC50
CC(C)OC(=O)COP(=O)(Oc1ccccc1)C(F)(F)c1ccc2sc(C(=O)N[C@H]3C[C@@H]4C[C@@H]4C[C@H]4CC[C@@H](C(=O)N5CC(C(=O)N6CCOCC6)C5)N4C3=O)cc2c1 (stereo partly drawn) [Compound 194, isopropyl 2-(((difluoro(2-(((3S,6S,7aS, 8aR,9aR)-3-(3-(morpholine-4-carbonyl)azetidine-1-carbonyl)-5-oxodecahydro-1H-cyclopropa[d]pyrrolo[1,2-a]azocin-6-yl)carbamoyl)benzo[b]thiophen-5-yl)methyl) (phenoxy)phosphoryl)oxy) acetate]	6.00 to 7.00	
CC(C)OC(=O)[C@H](C)NP(=O)(Cc1ccc2sc(C(=O)N[C@H]3C[C@@H]4C[C@@H]4C[C@H]4CC[C@@H](C(=O)N5CC(C(=O)N6CCOCC6)C5)N4C3=O)cc2c1)OCC(F)(F)F (stereo partly drawn) [Compound 200, isopropyl (((2-(((3S,6S,7aS, 8aR,9aR)-3-(3-(morpholine-4-carbonyl)azetidine-1-carbonyl)-5-oxodecahydro-1H-cyclopropa [d]pyrrolo[1,2-a]azocin-6-yl)carbamoyl)benzo[b]thiophen-5-yl)methyl) (2,2,2-trifluoroethoxy)phosphoryl)-L-alaninate]	6.00 to 7.00	
Cn1cnnc1C1CN(C(=O)[C@@H]2CC[C@@H]3C[C@@H]4C[C@@H]4C[C@H](NC(=O)c4cc5cc(C(F)(F)P(=O)(OCCSC(=O)C(C)(C)C)OCCSC(=O)C(C)(C)C)ccc5s4)C(=O)N32)C1 [Compound 201, S,S′-((((difluoro(2-(((3S,6S,7aR, 8aS,9aR)-3-(3-(4-methyl-4H-1,2,4-triazol-3-yl)azetidine-1-carbonyl)-5-oxodecahydro-1H-cyclopropa[d]pyrrolo[1,2-a]azocin-6-yl)carbamoyl)benzo[b]thiophen-5-yl)methyl)phosphoryl)bis(oxy))bis(ethane-2,1-diyl)) bis(2,2-dimethyl-propanethioate)]	> 7.00	
COC(=O)[C@H](C)NP(=O)(Cc1ccc2sc(C(=O)N[C@H]3C[C@@H]4C[C@@H]4C[C@H]4CC[C@@H](C(=O)N5CC(C(=O)N6CCOCC6)C5)N4C3=O)cc2c1)Oc1ccccc1 (stereo partly drawn) [Compound 216, methyl (((2-(((3S,6S,7aS, 8aR,9aR)-3-(3-(morpholine-4-carbonyl)azetidine-1-carbonyl)-5-oxodecahydro-1H-cyclopropa [d]pyrrolo[1,2-a]azocin-6-yl)carbamoyl)benzo[b]thiophen-5-yl)methyl) (phenoxy)phosphoryl)-L-alaninate]	6.00 to 7.00	
CCCOC(=O)[C@H](C)NP(=O)(Cc1ccc2sc(C(=O)N[C@H]3C[C@@H]4C[C@@H]4C[C@H]4CC[C@@H](C(=O)N5CC(C(=O)N6CCOCC6)C5)N4C3=O)cc2c1)Oc1ccccc1 (stereo partly drawn) [Compound 217, propyl (((2-(((3S,6S,7aS, 8aR,9aR)-3-(3-(morpholine-4-carbonyl)azetidine-1-carbonyl)-5-oxodecahydro-1H-cyclopropa[d]pyrrolo[1,2-a]azocin-6-yl)carbamoyl)benzo[b]thiophen-5-yl)methyl) (phenoxy)phosphoryl)-L-alaninate]	6.00 to 7.00	
CC(C)(C)C(=O)SCCOP(=O)(OCCSC(=O)C(C)(C)C)C(F)(F)c1ccc2ccc(C(=O)N[C@H]3C[C@@H]4C[C@@H]4C[C@H]4CC[C@@H](C(=O)N5CC(n6ccnc6)C5)N4C3=O)cc2c1 [Compound 221, S,S′-(((((7-(((3S,6S,7aS, 8aR,9aR)-3-(3-(1H-imidazol-1-yl)azetidine-1-carbonyl)-5-oxodecahydro-1H-cyclopropa[d]pyrrolo[1,2-a]azocin-6-yl)carbamoyl)naphthalen-2-yl)difluoromethyl)phosphoryl)bis(oxy))bis(ethane-2,1-diyl)) bis(2,2-dimethyl-propanethioate)]	> 7.00	
CC(C)OC(=O)OCOP(=O)(Cc1ccc2sc(C(=O)N[C@H]3C[C@H]4C[C@H]4C[C@H]4CC[C@@H](C(=O)N[C@@H]5CCN(c6cccnc6)C5)N4C3=O)cc2c1)OCOC(=O)OC(C)C [Compound 226, diisopropyl (((((2-(((3S,6S,7aR, 8aS,9aR)-5-oxo-3-(((R)-1-(pyridin-3-yl)pyrrolidin-3-yl)carbamoyl)decahydro-1H-cyclopropa[d]pyrrolo[1,2-a]azocin-6-yl)carbamoyl)benzo[b]thiophen-5-yl)methyl)phosphoryl)bis(oxy))bis(methylene)) bis(carbonate)]	> 7.00	
CC(C)(C)C(=O)SCCOP(=O)(OCCSC(=O)C(C)(C)C)C(F)(F)c1ccc2sc(C(=O)N[C@H]3C[C@@H]4C[C@@H]4C[C@H]4CC[C@@H](C(=O)N5CC(F)(c6ccc(C#N)cc6)C5)N4C3=O)cc2c1 [Compound 227, S,S′-(((((2-(((3S,6S,7aS, 8aR,9aR)-3-(3-(4-cyanophenyl)-3-fluoroazetidine-1-carbonyl)-5-oxodecahydro-1H-cyclopropa[d]pyrrolo[1,2-a]azocin-6-yl)carbamoyl)benzo[b]thiophen-5-yl)difluoromethyl)phosphoryl)bis(oxy))bis(ethane-2,1-diyl)) bis(2,2-dimethyl-propanethioate)]	> 7.00	
CC(C)CC(=O)SCCOP(=O)(OCCSC(=O)CC(C)C)C(F)(F)c1ccc2sc(C(=O)N[C@H]3C[C@@H]4C[C@@H]4C[C@H]4CC[C@@H](C(=O)N5CC(c6ncccn6)C5)N4C3=O)cc2c1 [Compound 229, S,S′-((((difluoro(2-(((3S,6S,7aS, 8aR,9aR)-5-oxo-3-(3-(pyrimidin-2-yl)azetidine-1-carbonyl)decahydro-1H-cyclopropa[d]pyrrolo[1,2-a]azocin-6-yl)carbamoyl)benzo[b]thiophen-5-yl)methyl)phosphoryl)bis(oxy))bis(ethane-2,1-diyl)) bis(3-methylbutane thioate)]	> 7.00	
CCCOC(=O)[C@H](C)NP(=O)(Cc1ccc2sc(C(=O)N[C@H]3C[C@H]4C[C@H]4CC4CC[C@@H](C(=O)N[C@H]5CN(C(C)=O)C[C@@H]5F)N4C3=O)cc2c1)Oc1ccccc1 (stereo partly drawn) [Compound 245, propyl(((2-(((3S,6S,7aR,8aS,9aR)-3-(((3S,4S)-1-acetyl-4-fluoropyrrolidin-3-yl)carbamoyl)-5-oxodecahydro-1H-cyclopropa[d]pyrrolo[1,2-a]azocin-6-yl)carbamoyl)benzo[b]thiophen-5-yl)methyl)(phenoxy)phosphoryl)-L-alaninate]		5.52 to 6.00
CCCOC(=O)[C@H](C)NP(=O)(Oc1ccccc1)C(F)c1ccc2sc(C(=O)N[C@H]3C[C@H]4C[C@H]4C[C@H]4CC[C@@H](C(=O)N5CC(c6cnccc6F)C5)N4C3=O)cc2c1 (stereo partly drawn) [Compound 249, propyl ((fluoro(2-(((3S,6S,7aR,8aS,9aR)-3-(3-(4-fluoropyridin-3-yl)azetidine-1-carbonyl)-5-oxodecahydro-1H-cyclopropa[d]pyrrolo[1,2-a]azocin-6-yl)carbamoyl)benzo[b]thiophen-5-yl)methyl)(phenoxy)phosphoryl)-L-alaninate]	> 7.00	
CCCOC(=O)[C@H](C)NP(=O)(Cc1ccc2sc(C(=O)N[C@H]3C[C@H]4C[C@H]4C[C@H]4CC[C@@H](C(=O)N5CC(c6cnccc6F)C5)N4C3=O)cc2c1)Oc1ccccc1 (stereo partly drawn) [Compound 251, propyl(((2-(((3S,6S,7aR,8aS,9aR)-3-(3-(4-fluoropyridin-3-yl)azetidine-1-carbonyl)-5-oxodecahydro-1H-cyclopropa[d]pyrrolo[1,2-a]azocin-6-yl)carbamoyl)benzo[b]thiophen-5-yl)methyl)(phenoxy)phosphoryl)-L-alaninate]		> 7.00
CCCOC(=O)[C@H](C)NP(=O)(Oc1ccccc1)C(F)c1ccc2sc(C(=O)N[C@H]3C[C@H]4C[C@H]4C[C@H]4CC[C@@H](C(=O)N[C@H]5CN(C(C)=O)C[C@@H]5F)N4C3=O)cc2c1 (stereo partly drawn) [Compound 255, propyl(((2-(((3S,6S,7aR,8aS,9aR)-3-(((3S,4S)-1-acetyl-4-fluoropyrrolidin-3-yl)carbamoyl)-5-oxodecahydro-1H-cyclopropa[d]pyrrolo[1,2-a]azocin-6-yl)carbamoyl)benzo[b]thiophen-5-yl)fluoromethyl)(phenoxy)phosphoryl)-L-alaninate]		6.00 to 7.00
CCCOC(=O)[C@H](C)NP(=O)(Oc1ccccc1)C(F)c1ccc2sc(C(=O)N[C@H]3C[C@@H]4C[C@@H]4C[C@H]4CC[C@@H](C(=O)N5CC(c6cnccc6F)C5)N4C3=O)cc2c1 (stereo partly drawn) [Compound 263, propyl ((fluoro(2-(((3S,6S,7aS,8aR,9aR)-3-(3-(4-fluoropyridin-3-yl)azetidine-1-carbonyl)-5-oxodecahydro-1H-cyclopropa[d]pyrrolo[1,2-a]azocin-6-yl)carbamoyl)benzo[b]thiophen-5-yl)methyl)(phenoxy)phosphoryl)-L-alaniante]	> 7.00	
CCCOC(=O)[C@H](C)NP(=O)(Cc1ccc2sc(C(=O)N[C@H]3C[C@@H]4C[C@@H]4C[C@H]4CC[C@@H](C(=O)N5CC(c6cnccc6F)C5)N4C3=O)cc2c1)Oc1ccccc1 (stereo partly drawn) [Compound 264, propyl (((2-(((3S,6S,7aS,8aR,9aR)-3-(3-(4-fluoropyridin-3-yl)azetidine-1-carbonyl)-5-oxodecahydro-1H-cyclopropa[d]pyrrolo[1,2-a]azocin-6-yl)carbamoyl)benzo[b]thiophen-5-yl)methyl)(phenoxy)phosphoryl)-L-alaninate]	> 7.00	
CCCOC(=O)[C@H](C)NP(=O)(Oc1ccccc1)C(F)c1ccc2sc(C(=O)N[C@H]3C[C@H]4C[C@H]4C[C@H]4CC[C@@H](C(=O)N[C@H]5CN(c6cccnc6)C[C@@H]5F)N4C3=O)cc2c1 (stereo partly drawn) [Compound 268, propyl ((fluoro(2-(((3S,6S,7aR,8aS,9aR)-3-(((3S,4S)-4-fluoro-1-(pyridin-3-yl)pyrrolidin-3-yl)carbamoyl)-5-oxodecahydro-1H-cyclopropa[d]pyrrolo[1,2-a]azocin-6-yl)carbamoyl)benzo[b]thiophen-5-yl)methyl)(phenoxy)phosphoryl)-L-alaninate]	> 7.00	
